Assay results reported in ChEMBL document CHEMBL1201862, “PubChem BioAssay data set” (2004).
Structures can show the parent of a compound that is named as a salt.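 Cells were grown in 96-well plates and exposed to each compound for 48 hours at five concentrations; endpoints were interpolated linearly between bracketing concentrations, or set to the highest concentration if not reached. GI50 marks 50% less growth.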 Activity calls are given as the source filed them. No stated cut-off is given here; in the data, active = GI50 up to about 1.1 µM and inactive = higher.

Columns and labels:
Test in all cases: DTP human tumour cell line panel, 48 h
[1] = test system: 786-0
[2] = test system: OVCAR-5
[3] = test system: SF-268
[4] = test system: LOX IMVI
[5] = test system: CCRF-CEM
[6] = test system: HCC 2998
[7] = test system: OVCAR-4
[8] = test system: A498
[9] = test system: MCF7
[10] = test system: SF-539
[11] = test system: HCT-116
[12] = test system: SK-MEL-28
[13] = test system: EKVX
[14] = test system: A549
[15] = test system: HCT-15
[16] = test system: SNB-75
[17] = test system: HOP-62
[18] = test system: SF-295
[19] = test system: PC-3
[20] = test system: SW-620

SMILES | GI50 [1] | GI50 [2] | GI50 [3] | GI50 [4] | GI50 [5] | GI50 [6] | GI50 [7] | GI50 [8] | GI50 [9] | GI50 [10] | GI50 [11] | GI50 [12] | GI50 [13] | GI50 [14] | GI50 [15] | GI50 [16] | GI50 [17] | GI50 [18] | GI50 [19] | GI50 [20]
CO/N=C(\C)c1cccc(Nc2nc3ccccc3c3occc23)c1 | 13.8 µM (inactive) | 13.8 µM (inactive) | 15.4 µM (inactive) | 15.2 µM (inactive) | 12.5 µM (inactive) | 15.1 µM (inactive) | 14.8 µM (inactive) | 3.61 µM (inactive) | 18.1 µM (inactive) | 13.6 µM (inactive) | 11.6 µM (inactive) | 14.3 µM (inactive) | 13.6 µM (inactive) | 13.1 µM (inactive) | 10.4 µM | 15.3 µM (inactive) | 15.4 µM (inactive) | 13 µM (inactive) | 14.5 µM (inactive) | 
CN(C)CCOC(=O)COc1ccc(Cl)cc1 [CENTROPHENOXINE HYDROCHLORIDE] | > 100 µM (inactive) | > 100 µM (inactive) | > 100 µM (inactive) | > 100 µM (inactive) | > 100 µM (inactive) | > 100 µM (inactive) | > 100 µM (inactive) | 98.6 µM (inactive) | 38.8 µM (inactive) | > 100 µM (inactive) | > 100 µM (inactive) | > 100 µM (inactive) | > 100 µM (inactive) | > 100 µM (inactive) | > 100 µM | 52.8 µM (inactive) | > 100 µM (inactive) | > 100 µM (inactive) | > 100 µM (inactive) | > 100 µM (inactive)
c1ccc2c(c1)-c1ccccc1C2N1CC2CCC(CC2)C1 | 35.1 µM (inactive) | 18 µM (inactive) | 15.5 µM (inactive) | 18.7 µM (inactive) | 19.5 µM (inactive) | 16.9 µM (inactive) | 31.9 µM (inactive) | 20.3 µM (inactive) | 17.5 µM (inactive) | 24.1 µM (inactive) | 20.7 µM (inactive) | 33.3 µM (inactive) | 21.7 µM (inactive) | 28.8 µM (inactive) | 16.8 µM | 27 µM (inactive) | 25.2 µM (inactive) | 19.3 µM (inactive) | 27.6 µM (inactive) | 22.1 µM (inactive)
Oc1ccc(SCc2cc(O)ccc2O)cc1 | 12.8 µM (inactive) | 20.4 µM (inactive) | 9.04 µM (inactive) | 16.6 µM (inactive) | 1.79 µM (inactive) | 22.8 µM (inactive) | 5.5 µM (inactive) | 34 µM (inactive) | 12.6 µM (inactive) | 3.54 µM (inactive) | 11.2 µM (inactive) | 17.7 µM (inactive) | 18.9 µM (inactive) | 41.3 µM (inactive) | 9.55 µM | 20.9 µM (inactive) | 14.8 µM (inactive) | 15.6 µM (inactive) | 6.1 µM (inactive) | 19.1 µM (inactive)
COC(=O)c1ccc(C)cc1/C=C1\Cc2ccc(C)cc2C1=O | 16.9 µM (inactive) | 15.9 µM (inactive) | 14.2 µM (inactive) | 12.9 µM (inactive) | 18.2 µM (inactive) | 19.7 µM (inactive) | 14.4 µM (inactive) | 19.1 µM (inactive) | 11.2 µM (inactive) | 12.4 µM (inactive) | 11.1 µM (inactive) | 16.6 µM (inactive) | 26.2 µM (inactive) | 26.9 µM (inactive) | 13 µM | 5.64 µM (inactive) | 15.5 µM (inactive) | 15.3 µM (inactive) | 17.9 µM (inactive) | 19.5 µM (inactive)
N=c1c2c3n(c4c(=O)n(-c5ccccc5)c(=S)n(c(=O)n1-c1ccccc1)c24)CCCCC3 | > 100 µM (inactive) | > 100 µM (inactive) | > 100 µM (inactive) | > 100 µM (inactive) | > 100 µM (inactive) | > 100 µM (inactive) | > 100 µM (inactive) | > 96.2 µM (inactive) | > 100 µM (inactive) | > 89.7 µM (inactive) | > 100 µM (inactive) | > 100 µM (inactive) | > 91.4 µM (inactive) | > 100 µM (inactive) | > 100 µM | > 63.1 µM (inactive) | 99.3 µM (inactive) | > 100 µM (inactive) | > 100 µM (inactive) | > 100 µM (inactive)
C[C@@H]1[C@@H](C)C(c2ccccc2)O[Si]1(C(C)(C)C)C(C)(C)C (some centres undefined) | 16 µM (inactive) | 17.6 µM (inactive) | 25.2 µM (inactive) | 16.9 µM (inactive) | 18.9 µM (inactive) | 19.8 µM (inactive) | 37.8 µM (inactive) | 16.6 µM (inactive) | 18.1 µM (inactive) | 17 µM (inactive) | 15.5 µM (inactive) | 24.9 µM (inactive) | 17.1 µM (inactive) | 16.6 µM (inactive) | 23.1 µM | 16 µM (inactive) | 17.5 µM (inactive) | 16.6 µM (inactive) | 17.1 µM (inactive) | 18.8 µM (inactive)
O=C(Nc1nc(C23CC4CC(CC(C4)C2)C3)cs1)c1cc2cc([N+](=O)[O-])ccc2oc1=O | 17.7 µM (inactive) | > 100 µM (inactive) | 26.2 µM (inactive) | 47.1 µM (inactive) | 55.6 µM (inactive) | > 100 µM (inactive) | 17.8 µM (inactive) | 36.3 µM (inactive) | 56.8 µM (inactive) | > 100 µM (inactive) | 37 µM (inactive) | 75.5 µM (inactive) | 53 µM (inactive) | 70.5 µM (inactive) | 85.1 µM | 20.3 µM (inactive) | 39.7 µM (inactive) | 38.1 µM (inactive) | 56.9 µM (inactive) | 33.6 µM (inactive)
CCC(=O)/C=C/c1ccccc1 | 46 µM (inactive) | > 100 µM (inactive) | 94 µM (inactive) | 22.8 µM (inactive) | 37.2 µM (inactive) | 63.1 µM (inactive) | 95.9 µM (inactive) | 48.9 µM (inactive) | 31.7 µM (inactive) | 53 µM (inactive) | 31.3 µM (inactive) | 54 µM (inactive) | > 100 µM (inactive) | > 100 µM (inactive) | 35.9 µM | > 100 µM (inactive) | > 100 µM (inactive) | 73.5 µM (inactive) | > 100 µM (inactive) | 32.5 µM (inactive)
CSc1nc(SC)c2c(C)cn(COCCOC(=O)c3ccccc3)c2n1 | > 100 µM (inactive) | > 100 µM (inactive) | > 100 µM (inactive) | 58.2 µM (inactive) | 64.1 µM (inactive) | > 100 µM (inactive) | > 100 µM (inactive) | 42.6 µM (inactive) | 76.4 µM (inactive) | 27.3 µM (inactive) | 83 µM (inactive) | > 100 µM (inactive) | > 100 µM (inactive) | > 100 µM (inactive) | > 100 µM | 50.2 µM (inactive) | > 100 µM (inactive) | > 100 µM (inactive) | 74.5 µM (inactive) | > 100 µM (inactive)
